# From patent publication US20260217716A1, “ANDROGEN RECEPTOR MODULATORS AND METHODS FOR THEIR USE” (Capulus Therapeutics, LLC, priority 2022, published 2026)
# Changes are numbered by the printed parent chain. Where two headings read alike, the source gives them in different places.
# Legend:
# [1] = Human liver microsome stability; type: in vitro ADME; details: 1 μM
# Protocol: (§1) Preincubation mixture 2.5 μL Test Cpd. +75 μL Liver microsomes (human or mouse source) @ 3.33 mg/mL+85 µL of 100 mM potassium phosphate buffer (preincubate for 10 min @ 37° C.). Incubation mixture 62 μL of cofactor (2.85 mM)+Remaining incubation mixture (Incubated for 60 min @ 37° C.). Sample preparation 25 μL incubation mixture+200 μL of acetonitrile containing internal standard+Vortex 5 min @ 1200 rpm+Centrifuge 10 min @ 4000 rpm. Supernatant diluted 2-fold with water and injected on LC-MS/MS.
# [2] = Mouse liver microsome stability; type: in vitro ADME; details: 1 μM
# Protocol: as §1
# [3] = biological target: T1, human AR (Homo sapiens, UniProt P10275); assay: Indigo Biosciences AR reporter cell assay (AR inhibition, antagonist mode); type: cell-based; details: for IC50: luciferase reporter cells, 24 hr, EC80 of agonist 5α-dihydro-11-keto testosterone, read-out: AR Inhibition Indigo Cell Based: Avg IC50
# T1 construct: Reporter Cells used in these assays expressed a native receptor (AR)
# T1 sequence (P10275 1-920): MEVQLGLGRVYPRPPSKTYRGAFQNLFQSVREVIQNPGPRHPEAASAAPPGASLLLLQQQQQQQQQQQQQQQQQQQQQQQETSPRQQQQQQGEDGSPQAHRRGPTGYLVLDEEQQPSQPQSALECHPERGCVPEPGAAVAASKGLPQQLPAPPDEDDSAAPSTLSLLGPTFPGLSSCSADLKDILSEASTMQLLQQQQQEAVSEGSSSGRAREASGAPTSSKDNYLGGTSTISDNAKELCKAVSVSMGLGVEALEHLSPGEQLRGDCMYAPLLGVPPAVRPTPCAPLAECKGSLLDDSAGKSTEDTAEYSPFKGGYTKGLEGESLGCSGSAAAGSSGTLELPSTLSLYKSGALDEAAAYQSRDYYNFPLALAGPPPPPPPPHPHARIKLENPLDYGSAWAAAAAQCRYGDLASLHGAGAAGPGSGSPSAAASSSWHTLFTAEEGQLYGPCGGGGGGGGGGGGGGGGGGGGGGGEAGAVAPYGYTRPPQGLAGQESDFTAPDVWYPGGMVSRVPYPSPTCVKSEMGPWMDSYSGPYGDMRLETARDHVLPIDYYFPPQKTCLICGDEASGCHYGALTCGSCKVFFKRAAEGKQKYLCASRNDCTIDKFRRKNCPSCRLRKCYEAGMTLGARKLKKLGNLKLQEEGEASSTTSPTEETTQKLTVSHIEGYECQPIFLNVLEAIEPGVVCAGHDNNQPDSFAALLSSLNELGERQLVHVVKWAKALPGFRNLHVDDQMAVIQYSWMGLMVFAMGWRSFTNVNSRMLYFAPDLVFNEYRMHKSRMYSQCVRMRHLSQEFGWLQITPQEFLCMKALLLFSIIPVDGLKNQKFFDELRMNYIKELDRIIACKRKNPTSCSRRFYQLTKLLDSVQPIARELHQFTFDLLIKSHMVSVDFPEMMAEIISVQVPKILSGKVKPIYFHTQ
# Protocol: The aim of this study was to evaluate compounds 1-12 and the comparative compounds 1-2 for inhibition activities against human AR. Reporter Cells used in these assays expressed a native receptor (AR). The reporter gene, firefly luciferase, is functionally linked to an upstream receptor-specific genetic response element (GRE). Reporter cells were treated with eight concentrations, starting at 50 μM and following with 3.17-fold dilutions. Single treatment concentration was performed (n=1). Assay performance was validated using the reference antagonist hydroxy flutamide. • Step 1: A suspension of reporter cells was prepared in Cell Recovery Medium (CRM). Reporter cells were first supplemented with 2×-EC80 concentration of the reference agonist, 5α-dihydro-11-keto testosterone, then 100 μl of the Reporter Cell suspension was dispensed into wells of a white 96-well assay plate. • Step 2: Test compound master stocks were diluted in DMSO to generate solutions at ‘500×-concentration’ relative to the final treatment concentration and diluted directly into INDIGO's Compound Screening Medium (CSM; containing charcoal-stripped FBS) to generate ‘2×-concentration’ treatment media. This was diluted into the wells to the final concentration. Assay plates were incubated at 37° C., 5% CO2 and ~70% humidity for 24 hr. • Step 3: Following the incubation period, wells were rinsed once with Live Cell Multiplex (LCM) Buffer, then LCM substrate was added. Following incubation at room temperature for 15 min, LCM substrate was discarded and 100 μL/well of luciferase detection reagent was added. Subsequently, fluorescence was measured to determine the relative number of live cells per assay well. RLU values were quantified after a 10 min incubation period at room temperature to determine nuclear receptor activities.
# [4] = biological target: T2, Human androgen receptors (Homo sapiens, UniProt P10275, T878A); assay: Biochemical AR LBD antagonism (Eurofins AR radioligand binding assay)
# T2 construct: Human androgen receptors obtained from human LNCaP cells were used; host or cells: human LNCaP cells
# T2 sequence (P10275 1-920 T878A): T1 sequence (P10275 1-920) with T878A
# Protocol: Human androgen receptors obtained from human LNCaP cells were used in modified HEPES buffer pH 7.4. A 70 μg‡ aliquot was incubated with 0.5 nM [3H] Methyltrienolone for 20 h at 4° C. Non-specific binding was estimated in the presence of 1 μM testosterone. Receptors were filtered and washed, the filters were then counted to determine [3H] Methyltrienolone specifically bound. Compounds were screened at 10 μM.
# Furthermore, as noted earlier, most clinically relevant AR inhibitors target the ligand binding domain (LBD) of the androgen receptor, and these inhibitors can lose efficacy due to point mutations in the LBD. Given that the AR protein contains multiple sub-domains, targeting other domains is an attractive approach for new inhibitors. […] Therefore, the compounds as described herein may be interacting with other subdomains in the AR protein, namely the N-terminal domain.
# [5] = Table 5, human liver microsomes
# [6] = Table 5, mouse liver microsomes
# [7] = Table 3, read-out: Biochemical AR LBD Antagonism: Avg IC50
# [8] = Table 6, human liver microsomes
# [9] = Table 6, mouse liver microsomes
# [10] = Table 4, read-out: Biochemical AR LBD Antagonism: Average IC50
"Human LM: Rem @ 60 min [1, 5]","Mouse LM: Rem @ 60 min [2, 6]",IC50 ([3]; Table 1),"IC50 [4, 7]","Human LM: Rem @ 60 min [1, 8]","Mouse LM: Rem @ 60 min [2, 9]",IC50 ([3]; Table 2),times more potent than the racemic mixture (Comparative Compound 1) in the cell-based activity assay ([3]; versus Comparative Compound 1),times more potent than the S isomer (Comparative Compound 2) in the cell-based activity assay ([3]; versus Comparative Compound 2),"IC50 [4, 10]",Compound
+++ (>60.1: “+++”),+++ (>60.1: “+++”),51 to 500 nM,> 501 nM,–,–,–,–,–,–,"CC(Nc1ccc2nnc(C(F)(F)F)n2n1)c1ccc(F)cc1 (racemic) [Comparative Compound 1, (R, S)—N-(1-(4-fluorophenyl)ethyl)-3-(trifluoromethyl)-[1,2,4]triazolo[4,3-b]pyridazin-6-amine, reference compound]"
–,–,> 501 nM,> 501 nM,–,–,–,–,–,–,"C[C@H](Nc1ccc2nnc(C(F)(F)F)n2n1)c1ccc(F)cc1 [Comparative Compound 2, (S)—N-(1-(4-fluorophenyl)ethyl)-3-(trifluoromethyl)-[1,2,4]triazolo[4,3-b]pyridazin-6-amine, reference compound]"
+++ (>60.1: “+++”),++ (30.1-60: “++”),< 50 nM,> 501 nM,+++ (>60.1: “+++”),++ (30.1-60: “++”),< 50 nM,~ 2 times,~ 150 times,> 501 nM,"C[C@@H](Nc1ccc2nnc(C(F)(F)F)n2n1)c1ccc(F)cc1 [Compound 1, (R)—N-(1-(4-fluorophenyl)ethyl)-3-(trifluoromethyl)-[1,2,4]triazolo[4,3-b]pyridazin-6-amine]"
–,–,–,–,+++ (>60.1: “+++”),+++ (>60.1: “+++”),< 50 nM,–,–,> 501 nM,"C[C@@H](Nc1ccc2nnc(C(F)(F)F)n2n1)c1cc(F)cc(F)c1 [Compound 2, (R)—N-(1-(3,5-difluorophenyl)ethyl)-3-(trifluoromethyl)-[1,2,4]triazolo[4,3-b]pyridazin-6-amine]"
–,–,–,–,+++ (>60.1: “+++”),+++ (>60.1: “+++”),< 50 nM,–,–,> 501 nM,"CC[C@@H](Nc1ccc2nnc(C(F)(F)F)n2n1)c1ccc(F)cc1 [Compound 3, (R)—N-(1-(4-fluorophenyl)propyl)-3-(trifluoromethyl)-[1,2,4]triazolo[4,3-b]pyridazin-6-amine]"
–,–,–,–,+++ (>60.1: “+++”),+++ (>60.1: “+++”),51 to 500 nM,–,–,–,"C[C@@H](Nc1ccc2nnc(C(F)(F)F)n2n1)c1ccc(C(F)(F)F)cc1 [Compound 4, (R)-3-(trifluoromethyl)-N-(1-(4-(trifluoromethyl)phenyl)ethyl)-[1,2,4]triazolo[4,3-b]pyridazin-6-amine]"
–,–,–,–,+++ (>60.1: “+++”),+ (0-30: “+”),51 to 500 nM,–,–,51 to 500 nM,"C[C@H](c1ccc(F)cc1)N(C)c1ccc2nnc(C(F)(F)F)n2n1 [Compound 5, (R)—N-(1-(4-fluorophenyl)ethyl)-N-methyl-3-(trifluoromethyl)-[1,2,4]triazolo[4,3-b]pyridazin-6-amine]"
–,–,–,–,+++ (>60.1: “+++”),+ (0-30: “+”),51 to 500 nM,–,–,> 501 nM,"COc1cc([C@@H](C)Nc2ccc3nnc(C(F)(F)F)n3n2)ccc1F [Compound 6, (R)—N-(1-(4-fluoro-3-methoxyphenyl)ethyl)-3-(trifluoromethyl)-[1,2,4]triazolo[4,3-b]pyridazin-6-amine]"
–,–,–,–,+++ (>60.1: “+++”),+ (0-30: “+”),51 to 500 nM,–,–,51 to 500 nM,"COc1cc(Cl)cc([C@@H](C)Nc2ccc3nnc(C(F)(F)F)n3n2)c1 [Compound 7, (R)—N-(1-(3-chloro-5-methoxyphenyl)ethyl)-3-(trifluoromethyl)-[1,2,4]triazolo[4,3-b]pyridazin-6-amine]"
–,–,–,–,+++ (>60.1: “+++”),+++ (>60.1: “+++”),51 to 500 nM,–,–,> 501 nM,"C[C@@H](Nc1ccc2nnc(C(F)(F)F)n2n1)c1cc(Cl)cc(Cl)c1 [Compound 8, (R)—N-(1-(3,5-dichlorophenyl)ethyl)-3-(trifluoromethyl)-[1,2,4]triazolo[4,3-b]pyridazin-6-amine]"
–,–,–,–,–,–,> 501 nM,–,–,–,"C[C@@H](Nc1ccc2nnc(C(F)(F)F)n2n1)c1ccc(C#N)cc1 [Compound 9, (R)-4-(1-((3-(trifluoromethyl)-[1,2,4]triazolo[4,3-b]pyridazin-6-yl)amino)ethyl)benzonitrile]"
–,–,–,–,–,–,> 501 nM,–,–,–,"C[C@@H](Nc1ccc2nnc(C3CC3)n2n1)c1ccc(F)cc1 [Compound 11, (R)-3-cyclopropyl-N-(1-(4-fluorophenyl)ethyl)-[1,2,4]triazolo[4,3-b]pyridazin-6-amine]"
